Measured values: patent US9944602B2, “Piperidinone herbicides” (E. I. DU PONT DE NEMOURS AND COMPANY, priority 2014, dated 2018)

Tests used:
Format in all cases: in vivo
[1] = test system: barnyardgrass (Echinochloa crus-galli); test: Test A preemergence barnyardgrass; conditions: 0 to 100 scale; for pest or weed control at 125 g/ha: 125 g ai/ha
Method in brief: (§1)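 Directed soil spray at planting gives preemergence data; foliar application to one- to two-leaf plants gives postemergence data. Response is visual injury relative to untreated controls about 10 d after treatment, scored 0–100.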

[2] = test system: foxtail, giant (giant foxtail, Setaria faberii); test: Test A preemergence foxtail, giant; conditions: Setaria faberi, pre-emergence, 240 h, 0 to 100 scale, 0 no effect, 100 complete control, read-out: Foxtail, Giant plant response rating; for pest or weed control at 125 g/ha: 125 g ai/ha; for pest or weed control at 500 g/ha: 500 g ai/ha
Method in brief: as §1

[3] = test system: ragweed (common ragweed, Ambrosia elatior); test: Test A postemergence ragweed; conditions: Ambrosia artemisiifolia, post-emergence, 240 h, 0 to 100 scale, 0 is no effect, 100 is complete control, read-out: Plant response rating, Ragweed; for pest or weed control at 125 g/ha: 125 g ai/ha; for pest or weed control at 500 g/ha: 500 g ai/ha
Method in brief: as §1

[4] = test system: ragweed (common ragweed, Ambrosia elatior); test: Test A preemergence ragweed; conditions: Ambrosia artemisiifolia, pre-emergence, 240 h, 0 to 100 scale, 0 no effect, 100 complete control, read-out: Ragweed plant response rating; for pest or weed control at 125 g/ha: 125 g ai/ha; for pest or weed control at 500 g/ha: 500 g ai/ha
Method in brief: as §1

[5] = test system: ryegrass, Italian (Italian ryegrass, Lolium multiflorum); test: Test A preemergence ryegrass, Italian; conditions: Lolium multiflorum, pre-emergence, 240 h, 0 to 100 scale, 0 no effect, 100 complete control, read-out: Ryegrass, Italian plant response rating; for pest or weed control at 125 g/ha: 125 g ai/ha; for pest or weed control at 500 g/ha: 500 g ai/ha
Method in brief: as §1

[6] = test system: ducksalad (Heteranthera limosa); test: Test B flooded paddy test ducksalad; conditions: Heteranthera limosa, Table B, Flood, scale 0 to 100, read-out: Plant response rating; for pest or weed control at 250 g/ha: 250 g ai/ha
Method in brief: (§2)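 Water-applied paddy treatment: compound dosed into 3 cm flood on 2-leaf plants, read visually versus controls after 13 to 15 d.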

[7] = test system: sedge, umbrella (small-flower umbrella sedge, Cyperus difformis); test: Test B flooded paddy test sedge, umbrella; conditions: Cyperus difformis, Table B, Flood, scale 0 to 100, read-out: Plant response rating; for pest or weed control at 250 g/ha: 250 g ai/ha
Method in brief: as §2

kochia (Kochia scoparia) [8] = test: Test A preemergence kochia; conditions: Bassia scoparia, pre-emergence, 240 h, 0 to 100 scale, 0 no effect, 100 complete control, read-out: Kochia plant response rating; for pest or weed control at 125 g/ha: 125 g ai/ha; for pest or weed control at 500 g/ha: 500 g ai/ha
Method in brief: as §1

[9] = test system: blackgrass (Alopecurus myosuroides); test: Test A postemergence blackgrass; conditions: Alopecurus myosuroides, post-emergence, 240 h, 0 to 100 scale, 0 is no effect, 100 is complete control, read-out: Plant response rating, Blackgrass; for pest or weed control at 125 g/ha: 125 g ai/ha; for pest or weed control at 500 g/ha: 500 g ai/ha
Method in brief: as §1

[10] = test system: barnyardgrass (Echinochloa crus-galli); test: Test A postemergence barnyardgrass; conditions: Echinochloa crus-galli, post-emergence, 240 h, 0 to 100 scale, 0 is no effect, 100 is complete control, read-out: Plant response rating, Barnyardgrass; for pest or weed control at 125 g/ha: 125 g ai/ha; for pest or weed control at 500 g/ha: 500 g ai/ha
Method in brief: as §1

rice (Oryza sativa) = test: Test B flooded paddy test rice; conditions: Oryza sativa, Table B, Flood, scale 0 to 100, read-out: Plant response rating; for plant injury at 250 g/ha: 250 g ai/ha
Method in brief: as §2

[11] = test system: galium (catchweed bedstraw, Galium aparine); test: Test A postemergence galium; conditions: Galium, post-emergence, 240 h, 0 to 100 scale, 0 is no effect, 100 is complete control, read-out: Plant response rating, Galium; for pest or weed control at 125 g/ha: 125 g ai/ha; for pest or weed control at 500 g/ha: 500 g ai/ha
Method in brief: as §1

[12] = test system: ryegrass, Italian (Italian ryegrass, Lolium multiflorum); test: Test A postemergence ryegrass, Italian; conditions: Lolium multiflorum, post-emergence, 240 h, 0 to 100 scale, 0 is no effect, 100 is complete control, read-out: Plant response rating, Ryegrass, Italian; for pest or weed control at 125 g/ha: 125 g ai/ha; for pest or weed control at 500 g/ha: 500 g ai/ha
Method in brief: as §1

[13] = test system: foxtail, giant (giant foxtail, Setaria faberii); test: Test A postemergence foxtail, giant; conditions: Setaria faberi, post-emergence, 240 h, 0 to 100 scale, 0 is no effect, 100 is complete control, read-out: Plant response rating, Foxtail, Giant; for pest or weed control at 125 g/ha: 125 g ai/ha; for pest or weed control at 500 g/ha: 500 g ai/ha
Method in brief: as §1

[14] = test system: wheat (Triticum aestivum); test: Test A postemergence wheat; conditions: Triticum aestivum, post-emergence, 240 h, 0 to 100 scale, 0 is no effect, 100 is complete control, read-out: Plant response rating, Wheat; for plant injury at 125 g/ha: 125 g ai/ha; for plant injury at 500 g/ha: 500 g ai/ha
Method in brief: as §1

corn (Zea mays) = test: Test A postemergence corn; conditions: Zea mays, post-emergence, 240 h, 0 to 100 scale, 0 is no effect, 100 is complete control; for Corn plant response rating (crop injury, 0 = no effect, 100 = complete kill) at 125 g/ha: 125 g ai/ha; for Corn plant response rating (crop injury, 0 = no effect, 100 = complete kill) at 500 g/ha: 500 g ai/ha
Method in brief: as §1

[15] = test system: pigweed (Amaranthus retroflexus); test: Test A postemergence pigweed; conditions: Amaranthus retroflexus, post-emergence, 240 h, 0 to 100 scale, 0 is no effect, 100 is complete control, read-out: Plant response rating, Pigweed; for pest or weed control at 125 g/ha: 125 g ai/ha; for pest or weed control at 500 g/ha: 500 g ai/ha
Method in brief: as §1

kochia (Kochia scoparia) [16] = test: Test A postemergence kochia; conditions: Bassia scoparia, post-emergence, 240 h, 0 to 100 scale, 0 is no effect, 100 is complete control, read-out: Plant response rating, Kochia; for pest or weed control at 125 g/ha: 125 g ai/ha; for pest or weed control at 500 g/ha: 500 g ai/ha
Method in brief: as §1

[17] = test system: pigweed (Amaranthus retroflexus); test: Test A preemergence pigweed; conditions: Amaranthus retroflexus, pre-emergence, 240 h, 0 to 100 scale, 0 no effect, 100 complete control, read-out: Pigweed plant response rating; for pest or weed control at 125 g/ha: 125 g ai/ha; for pest or weed control at 500 g/ha: 500 g ai/ha
Method in brief: as §1

[18] = test system: barnyardgrass (Echinochloa crus-galli); test: Test B flooded paddy test barnyardgrass; conditions: Echinochloa crus-galli, Table B, Flood, scale 0 to 100, read-out: Plant response rating; for pest or weed control at 250 g/ha: 250 g ai/ha
Method in brief: as §2

[19] = Echinochloa crus-galli, pre-emergence, 240 h, 0 no effect, 100 complete control, read-out: Barnyardgrass plant response rating

SMILES	pest or weed control at 125 g/ha [1, 19] [%]	pest or weed control at 125 g/ha [2] [%]	pest or weed control at 500 g/ha [2] [%]	pest or weed control at 125 g/ha [3] [%]	pest or weed control at 500 g/ha [3] [%]	pest or weed control at 125 g/ha [4] [%]	pest or weed control at 500 g/ha [4] [%]	pest or weed control at 125 g/ha [5] [%]	pest or weed control at 500 g/ha [5] [%]	pest or weed control at 250 g/ha [6] [%]	pest or weed control at 250 g/ha [7] [%]	pest or weed control at 125 g/ha (kochia (Kochia scoparia) [8]) [%]	pest or weed control at 500 g/ha (kochia (Kochia scoparia) [8]) [%]	pest or weed control at 125 g/ha [9] [%]	pest or weed control at 500 g/ha [9] [%]	pest or weed control at 125 g/ha [10] [%]	pest or weed control at 500 g/ha [10] [%]	plant injury at 250 g/ha (rice (Oryza sativa)) [%]	pest or weed control at 125 g/ha [11] [%]	pest or weed control at 500 g/ha [11] [%]	other results
O=C1NCCC(c2ccc(C(F)(F)F)cc2)C1C(=O)Nc1ccccc1F (stereo not shown) [Compound 14, N-(2-fluorophenyl)-2-oxo-4-[4-(trifluoromethyl)phenyl]-3-piperidinecarboxamide]	50	30	90	0	0	0	0	0	0	80	0	0	20	0	0	20	90	0	0	0	Plant response rating, Barnyardgrass ([1]; 500 g ai/ha, 0 is no effect, 100 is complete control): 90; pest or weed control at 1000 g/ha ([6]; 1000 g ai/ha): 100%; pest or weed control at 1000 g/ha ([7]; 1000 g ai/ha): 0%; plant injury at 1000 g/ha (rice (Oryza sativa); 1000 g ai/ha): 0%; pest or weed control at 125 g/ha [12]: 0%; pest or weed control at 500 g/ha [12]: 0%; pest or weed control at 125 g/ha [13]: 30%; pest or weed control at 500 g/ha [13]: 90%; plant injury at 125 g/ha [14]: 0%; plant injury at 500 g/ha [14]: 0%; Corn plant response rating (crop injury, 0 = no effect, 100 = complete kill) at 125 g/ha (corn (Zea mays)): 0%; Corn plant response rating (crop injury, 0 = no effect, 100 = complete kill) at 500 g/ha (corn (Zea mays)): 0%; pest or weed control at 125 g/ha [15]: 0%; pest or weed control at 500 g/ha [15]: 0%; pest or weed control at 125 g/ha (kochia (Kochia scoparia) [16]): 0%; pest or weed control at 500 g/ha (kochia (Kochia scoparia) [16]): 0%; pest or weed control at 125 g/ha [17]: 0%; pest or weed control at 500 g/ha [17]: 0%; pest or weed control at 250 g/ha [18]: 30%; pest or weed control at 1000 g/ha ([18]; 1000 g ai/ha): 30%
O=C1NCC[C@H](c2ccc(F)cc2)[C@H]1C(=O)Nc1ccccc1C(F)(F)F [Compound 57, (3R,4S)-4-(4-fluorophenyl)-2-oxo-N-[2-(trifluoromethyl)phenyl]-3-piperidinecarboxamide]	30	60	90	0	0	0	0	0	0	40	0	0	0	0	0	0	70	0	0	0	pest or weed control at 500 g/ha ([1]; Echinochloa crus-galli, pre-emergence, 240 h, 500 g ai/ha, 0 no effect, 100 complete control, read-out: Barnyardgrass plant response rating): 70%; pest or weed control at 125 g/ha [12]: 0%; pest or weed control at 500 g/ha [12]: 0%; pest or weed control at 125 g/ha [13]: 0%; pest or weed control at 500 g/ha [13]: 60%; plant injury at 125 g/ha [14]: 0%; plant injury at 500 g/ha [14]: 0%; Corn plant response rating (crop injury, 0 = no effect, 100 = complete kill) at 125 g/ha (corn (Zea mays)): 0%; Corn plant response rating (crop injury, 0 = no effect, 100 = complete kill) at 500 g/ha (corn (Zea mays)): 0%; pest or weed control at 125 g/ha [15]: 0%; pest or weed control at 500 g/ha [15]: 0%; pest or weed control at 125 g/ha (kochia (Kochia scoparia) [16]): 0%; pest or weed control at 500 g/ha (kochia (Kochia scoparia) [16]): 0%; pest or weed control at 125 g/ha [17]: 0%; pest or weed control at 500 g/ha [17]: 0%; pest or weed control at 250 g/ha [18]: 0%
